From US20180179198A1, “TRICYCLIC MODULATORS OF TNF SIGNALING” (AbbVie Inc., priority 2015, published 2018)

What follows are compounds tested against TNFα trimer (Homo sapiens, UniProt P01375) (assay: TNFα FP Competitive Binding Assay). Settings: TNFα FP competitive binding assay; class symbols A/B/C; read-out: TNF IC50.
Outline: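 Fluorescence polarization displacement: 20 nM TNFα trimer (60 nM protein) with 1 nM fluorescein-labelled bis-isoquinoline probe in HEPES/NaCl/EDTA/Triton X-100 buffer. 12-point 1:3 compound series, top final 338 μM (3.4% DMSO) or 100 μM (2.0% DMSO); 18-24 h at 37 °C, then 1 h rt before background-subtracted mP read; variable-slope curve fit.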

Sequence of TNFα trimer (P01375 77-233 limits assumed): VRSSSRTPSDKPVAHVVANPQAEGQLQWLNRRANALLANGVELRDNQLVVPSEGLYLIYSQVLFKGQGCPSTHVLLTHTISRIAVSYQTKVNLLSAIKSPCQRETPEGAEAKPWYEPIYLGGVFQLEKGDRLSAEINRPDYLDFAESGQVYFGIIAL

IC50 [nM] | SMILES
< 1000 | OC1CCN(c2ncc(-c3ccc4nc5n(c4n3)[C@@H](c3ccccc3)COC5)cn2)CC1 [AB.4]
1000 to 10000 | COc1ncc(-c2ccc3nc4n(c3n2)C2(CCOc3ccccc32)COC4)cn1 (stereo not shown) [BA.1]
1000 to 10000 | Cc1ccc(-c2ccc3nc4n(c3c2)C(c2ccccc2)COC4)cn1 (stereo not shown) [T.18]
1000 to 10000 | CC(O)c1ncc(-c2ccc3nc4n(c3n2)[C@@H](c2ccccc2)CC4)cn1 (stereo partly shown) [AL.1]
< 1000 | O=C1CN(c2ncc(-c3ccc4nc5n(c4n3)[C@@H](c3ccccc3)COC5)cn2)CCN1 [AB.3]
1000 to 10000 | COC(C)(C)CC(=O)N1CC=C(c2ccc3nc4n(c3n2)C2(COC4)COc3ccccc32)CC1 (stereo not shown) [BI.1]
< 1000 | OCC1CCCN(c2ncc(-c3ccc4nc5n(c4n3)C(c3ccccc3)COC5)cn2)C1 (stereo not shown) [AZ.4]
1000 to 10000 | CNCC(=O)N1CC=C(c2ccc3nc4n(c3n2)C2(COC4)COc3ccccc32)CC1 (stereo not shown) [BF.2]
1000 to 10000 | FC(F)(F)c1ccc(-c2ccc3nc4n(c3c2)C(c2ccccc2)COC4)cn1 (stereo not shown) [T.33]
< 1000 | OC1(c2ncc(-c3ccc4nc5n(c4c3)[C@@H](c3ccccc3)CC5)cn2)COC1 [AA.3]
1000 to 10000 | O[C@H]1CC[C@@H](Oc2cc(-c3ccc4nc5n(c4n3)C3(COC5)COc4ccccc43)ccn2)CC1 (stereo partly shown) [AX.2]
1000 to 10000 | c1ccc([C@H]2CCc3nc4ccc(-c5ccnc(OC6CCCNC6)c5)nc4n32)cc1 (stereo partly shown) [AT.1]
< 1000 | O=C1NCC2CN(c3ncc(-c4ccc5nc6n(c5n4)C(c4ccccc4F)COC6)cn3)CCN12 (stereo not shown) [AH.7]
1000 to 10000 | c1ccc([C@H]2CCc3nc4ccc(-c5ccnc(OCC6COC6)c5)nc4n32)cc1 [AQ.5]
< 1000 | c1ccc([C@H]2CCc3nc4ccc(-c5cnc(N6CCOCC6)nc5)nc4n32)cc1 [Y.10]
1000 to 10000 | c1ccc(C2COCc3nc4ccc(-c5cnc(NC6CC6)nc5)cc4n32)cc1 (stereo not shown) [T.24]
< 1000 | OC1CCN(c2ncc(-c3ccc4nc5n(c4n3)C3(CCOc4ccccc43)COC5)cn2)C1 (stereo not shown) [BB.5]
1000 to 10000 | CS(=O)(=O)c1ccc(-c2ccc3nc4n(c3c2)C(c2ccccc2)COC4)cn1 (stereo not shown) [T.2]
< 1000 | COc1ccccc1[C@H]1COCc2nc3ccc(-c4cnc(N5CCC(O)CC5)nc4)nc3n21 [AC.1]
1000 to 10000 | FC(F)(F)COc1ccc(-c2ccc3nc4n(c3c2)C(c2ccccc2)COC4)cn1 (stereo not shown) [T.4]
1000 to 10000 | Cc1ncc(-c2ccc3nc4n(c3c2)C(c2ccccc2)COC4)cn1 (stereo not shown) [T.31]
< 1000 | COc1ccccc1C1CCCc2nc3ccc(-c4cnc(N5CCC(C)(O)CC5)nc4)cn3c21 (stereo not shown) [AJ.5]
< 1000 | c1ccc([C@H]2CCc3nc4ccc(-c5ccnc(OC6CCOCC6)c5)cc4n32)cc1 [AA.4]
< 1000 | COc1cccc([C@H]2CCc3nc4ccc(-c5cnc(N6CCN(C(C)=O)[C@H](C)C6)nc5)nc4n32)c1 [AM.2, 1-((R)-4-(5-((R)-8-(3-methoxyphenyl)-7,8-dihydro-6H-pyrrolo[2′,1′:2,3]imidazo[4,5-b]pyridin-2-yl)pyrimidin-2-yl)-2-methylpiperazin-1-yl)ethanone]
< 1000 | OC1CCN(c2ncc(-c3ccc4nc5n(c4c3)[C@@H](c3ccccc3)COC5)cn2)CC1(F)F (stereo partly shown) [W.1]
1000 to 10000 | CC(C)Nc1ncc(-c2ccc3nc4n(c3n2)C2(CCOc3ccccc32)COC4)cn1 (stereo not shown) [BA.5]
< 1000 | COc1ccccc1C1CCCc2nc3ccc(-c4cnc(N5CCC6(CC5)CC(O)C6)nc4)cn3c21 (stereo not shown) [AJ.8]
1000 to 10000 | N#C[C@@H]1CC[C@@H](Oc2cc(-c3ccc4nc5n(c4n3)[C@@H](c3ccccc3)CC5)ccn2)C1 [AS.7]
< 1000 | O=C1NCC2CN(c3ncc(-c4ccc5nc6n(c5c4)C(c4cccc(C(F)(F)F)c4)COC6)cn3)CCN12 (stereo not shown) [AH.4]

Same assay, conditions: Table BK; read-out: TNF IC50

IC50 [nM] | SMILES
< 1000 | O[C@H]1CC[C@@H](COc2cc(-c3ccc4nc5n(c4n3)[C@@H](c3ccccc3)CC5)ccn2)CC1 [BK.1]

Same assay, conditions: Table BQ; read-out: TNF IC50

IC50 [nM] | SMILES
1000 to 10000 | CC(C)(N)c1ncc(-c2ccc3nc4n(c3n2)[C@@H](c2ccccc2)CC4)cn1 [BQ.1]

Same assay, conditions: fluorescence polarization competition; 20 nM TNFα trimer, 1 nM OregonGreen488 probe; read-out: TNF IC50 (TNFα FP binding assay IC50)

IC50 [nM] | SMILES
1000 to 10000 | OC1(c2ccc(Cl)cc2)CCCCc2nc3ccc(-c4cnc(N5CCOCC5)nc4)cn3c21 (stereo not shown) [J.8]
1000 to 10000 | OC1(c2cccc(Cl)c2)CCCc2nc3ccc(-c4cnc(N5CCOCC5)nc4)cn3c21 (stereo not shown) [I.1, 9-(3-Chlorophenyl)-2-(2-morpholinopyrimidin-5-yl)-6,7,8,9-tetrahydrobenzo[4,5]imidazo[1,2-a]pyridin-9-ol]
< 1000 | OC1CCN(c2ncc(-c3ccc4nc5n(c4c3)[C@@H](c3ccccc3)CC5)cn2)CC1 [F.3]
1000 to 10000 | O=c1cc(-c2ccc3nc4n(c3n2)[C@@H](c2ccccc2)CC4)ccn1CC1CCC(F)(F)CC1 [Example 53, (R)-1-((4,4-Difluorocyclohexyl)methyl)-4-(8-phenyl-7,8-dihydro-6H-pyrrolo[2′,1′:2,3]imidazo[4,5-b]pyridin-2-yl)pyridin-2(1H)-one]
1000 to 10000 | OC1(c2cc(F)cc(Cl)c2)CCCc2nc3ccc(-c4cnc(N5CCOCC5)nc4)cn3c21 (stereo not shown) [I.7]
< 1000 | c1ccc(C2CCCc3nc4ccc(-c5cnc(N6CCOCC6)nc5)nc4n32)cc1 (stereo not shown) [O.1]
< 1000 | OC1CCN(c2ncc(-c3ccc4nc5n(c4n3)C(c3ccccc3)CCC5)cn2)CC1 (stereo not shown) [O.4]
< 1000 | CC(C)(O)c1ncc(-c2ccc3nc4n(c3c2)[C@@H](c2ccccc2)CC4)cn1 [Example 2, (R)-2-(5-(1-Phenyl-2,3-dihydro-1H-benzo[d]pyrrolo[1,2-a]imidazol-7-yl)pyrimidin-2-yl)propan-2-ol]
< 1000 | O=C1CN(c2ncc(-c3ccc4nc5n(c4c3)[C@@H](c3ccccc3)COC5)cn2)CCN1 [G.30]
1000 to 10000 | CNC(=O)c1cccc(-c2ccc3nc4n(c3c2)C(c2ccccc2)CC4)c1 (stereo not shown) [A.43]
1000 to 10000 | c1ccc2c(c1)OCC21COCc2nc3ccc(-c4cnc(N5CCNCC5)nc4)nc3n21 (stereo not shown) [Example 66, 2′-(2-(Piperazin-1-yl)pyrimidin-5-yl)-2H,6′H,8′H-spiro[benzofuran-3,9′-pyrido[3′,2′:4,5]imidazo[2,1-c][1,4]oxazine]]
< 1000 | OCC1CN(c2ncc(-c3ccc4nc5n(c4c3)[C@@H](c3ccccc3)COC5)cn2)CCO1 (stereo partly shown) [G.35]
< 1000 | c1ccc(C2CCc3nc4ccc(-c5cnc(N6CCOCC6)nc5)nc4n32)cc1 (stereo not shown) [Example 6, 4-(5-(8-Phenyl-7,8-dihydro-6H-pyrrolo[2′,1′:2,3]imidazo[4,5-b]pyridin-2-yl)pyrimidin-2-yl)morpholine]
1000 to 10000 | c1ccc2c(c1)OCCC21COCc2nc3ccc(-c4cnc(NC5CCOC5)nc4)nc3n21 (stereo not shown) [Example 60, 5-(6′H,8′H-Spiro[chromane-4,9′-pyrido[3′,2′:4,5]imidazo[2,1-c][1,4]oxazin]-2′-yl)-N-(tetrahydrofuran-3-yl)pyrimidin-2-amine]
< 1000 | CC1CN(c2ncc(-c3ccc4nc5n(c4c3)[C@@H](c3ccccc3)COC5)cn2)CCO1 (stereo partly shown) [G.2]
10000 to 100000 | O=C1CN(c2ncc(-c3cc4c(cn3)nc3n4C(c4ccccc4)CC3)cn2)CCN1 (stereo not shown) [P.3]
< 1000 | Cc1ccc(C)c(C2CCc3nc4ccc(-c5cnc(N6CCNC(=O)C6)nc5)nc4n32)c1 (stereo not shown) [N.2]

IC50 [nM] | SMILES
1000 to 10000 | CN(C)c1ccc(-c2ccc3nc4n(c3c2)C(c2ccccc2)CC4)cn1 (stereo not shown) [A.12]
1000 to 10000 | OC1(c2cccc(F)c2)CCCc2nc3ccc(-c4cnc(N5CCOCC5)nc4)cn3c21 (stereo not shown) [I.4]
< 1000 | O[C@H]1CC[C@H](Oc2cc(-c3ccc4nc5n(c4n3)[C@@H](c3ccccc3)CC5)ccn2)CC1 [Example 83, (1R,4R)-4-((4-((R)-8-Phenyl-7,8-dihydro-6H-pyrrolo[2′,1′:2,3]imidazo[4,5-b]pyridin-2-yl)pyridin-2-yl)oxy)cyclohexanol]
1000 to 10000 | O=C1NCCC12CCN(c1ncc(-c3ccc4nc5n(c4c3)[C@@H](c3ccccc3)COC5)cn1)C2 (stereo partly shown) [G.1]
10000 to 100000 | O[C@H]1CN(c2ncc(-c3ccc4nc5n(c4c3)[C@@H](c3ccccc3)COC5)cn2)C[C@@H]1O [G.25]
< 1000 | Cc1ccc(C)c(C2CCc3nc4ccc(-c5cnc(N6CCOCC6)nc5)nc4n32)c1 (stereo not shown) [N.1]
1000 to 10000 | CC(C)(O)c1ncc(-c2ccc3nc4n(c3c2)C(c2ccccn2)CC4)cn1 (stereo not shown) [Example 28, 2-(5-(1-(Pyridin-2-yl)-2,3-dihydro-1H-benzo[d]pyrrolo[1,2-a]imidazol-7-yl)pyrimidin-2-yl)propan-2-ol]
< 1000 | c1ccc([C@H]2CCc3nc4ccc(-c5ccnc(OC6CCOCC6)c5)nc4n32)cc1 [Example 47, (R)-8-Phenyl-2-(2-((tetrahydro-2H-pyran-4-yl)oxy)pyridin-4-yl)-7,8-dihydro-6H-pyrrolo[2′,1′:2,3]imidazo[4,5-b]pyridine]
< 1000 | OC1CCC(Oc2cc(-c3ccc4nc5n(c4n3)C3(COC5)COc4ccccc43)ccn2)CC1 (stereo not shown) [Example 54, 4-((4-(6′,8′-dihydro-2H-spiro[benzofuran-3,9′-pyrido[3′,2′:4,5]imidazo[2,1-c][1,4]oxazin]-2′-yl)pyridin-2-yl)oxy)cyclohexanol]
< 1000 | CCS(=O)(=O)c1ccc(-c2ccc3nc4n(c3c2)C(c2ccccc2)CC4)cn1 (stereo not shown) [A.9]
< 1000 | OC1CCN(c2ncc(-c3ccc4nc5n(c4n3)C3(CCc4ccccc43)COC5)cn2)CC1 (stereo not shown) [Example 52]
< 1000 | CS(=O)(=O)NCc1ccc(-c2ccc3nc4n(c3c2)C(c2ccccc2)CC4)cc1 (stereo not shown) [A.4]
10000 to 100000 | CCN(C)C(=O)c1cccc(-c2ccc3nc4n(c3c2)C(c2ccccc2)CC4)c1 (stereo not shown) [A.44]
< 1000 | Cc1ccc(C)c(C2CCc3nc4ccc(-c5cnc(N6CCC(O)CC6)nc5)nc4n32)c1 (stereo not shown) [N.3]
1000 to 10000 | CS(=O)(=O)NC1CCN(c2ncc(-c3ccc4nc5n(c4c3)[C@@H](c3ccccc3)COC5)cn2)CC1 [G.19]
1000 to 10000 | OC1(c2ccc(F)cc2)CCCCc2nc3ccc(-c4cnc(N5CCOCC5)nc4)cn3c21 (stereo not shown) [J.4]
